Assay results reported in patent EP3965790B1, “PENTACYCLIC TRITERPENES IN THE TREATMENT OF VITILIGO” (Pierre Fabre Dermo-Cosmétique, priority 2019, dated 2020).

Columns and labels:
CXCL10 = assay: RT-qPCR gene expression in cytokine-stimulated keratinocytes; format: cell-based, humains; settings: stimulated keratinocytes, 24 h
[1] = ORAC (Oxygen Radical Antioxydant Capacity) antioxidant test in tubo; settings: for Indice ORAC / 100g triterpènes (x 1000): Trolox standard, AAPH, fluorescéine
From the text: Le stress oxydatif fait partie des causes possibles de l'apparition du vitiligo. Cette expérience a pour objectif de mesurer l'activité antioxydante de chaque triterpène pentacyclique et des deux extraits, en comparaison avec un témoin positif bien connu, la vitamine C. La méthode in tubo utilisée est celle d'évaluation ORAC (Oxygen Radical Antioxydant Capacity) adaptée de celle décrite par Davalos et al. (J Agric Food Chem 52(1):48-54, 2004). L'indice ORAC permet d'évaluer la capacité anti-oxydante de chaque composé testé dans l'exemple 2. Ce test permet d'évaluer et de classer les différents composés testés suivant leur pouvoir anti-oxydant vis-à-vis des radicaux libres péroxyl. Le AAPH (2,2'-azobis-2-méthyl-propanimidamide, dihydrochloride) est à l'origine de radicaux libres péroxyl. Ce test est utilisé pour mimer la cinétique de dégradation de la fluorescéine par les radicaux libres. Ceci se traduit par une diminution de fluorescence en fonction du temps et de la concentration en actif anti-oxydant présent dans l'extrait testé. L'acide 3,4-dihydro-6-hydroxy-2,5,7,8-tétraméthyl-2H-1-benzopyran-2-carboxylique ou Trolox est utilisé comme standard, il s'agit d'un analogue hydrophile de la vitamine E (anti-oxydant connu). L'ajout de Trolox (gamme de référence) ou d'extrait ou triterpène pentacyclique, protège la fluorescéine de la dégradation. Ceci permet d'évaluer une activité antioxydante mesurée par rapport à une gamme de Trolox.
Toutes les solutions sont réalisées dans du tampon phosphate 75 mM, pH à 7,6. La fluorescéine est à 1,17 µM (solution mère […]). AAPH à 125 mM est préparé extemporanément, Trolox à 1 mM. Dans une plaque de 96 puits noir, il est déposé 20 µl d'antioxydant (gamme Trolox ou composé à tester), 160 µl de fluorescéine à 1,17 µM. la plaque est recouverte d'un film, puis est incubée pendant 15 minutes à 37°C. la solution de AAPH est ajoutée manuellement et le plus rapidement possible à raison de 20 µl par puits. La plaque est alors incubée immédiatement à 37°C dans un spectrofluorimètre (SpectraMax). Une lecture est enregistrée toutes les minutes pendant 90 minutes. La longueur d'onde d'excitation est de 485 nm et la longueur d'onde d'émission est de 520 nm. Chaque essai est réalisé en triplicata.
Les aires sous la courbe (AUC) pour chacun des essais sont calculées. Les AUC nets sont déterminées de la façon suivante : AUC net = AUC point de gamme ou échantillon−AUC blanc. [formula]
La droite d'étalonnage est établie, la concentration en Trolox (µM) en fonction de l'AUC net. L'équation de la droite est utilisée pour déterminer un équivalent en Trolox (µM) pour chacun des échantillons dosés.
Eq Trolox en µM = a x (AUC net)2 + b x (AUC net), a et b sont déterminés par l'équation de la droite.
Pour être dosés, les échantillons sont dilués, de sorte que les valeurs mesurées soient comprises dans la gamme étalon utilisée pour le dosage. L'acide ascorbique (vitamine C) est utilisé comme référence.
L'indice ORAC correspond à des […] de Trolox / 100g de matières.
Les résultats ci-dessous ont été calculés pour 100g d'extrait en Triterpènes, Tingénine A, Tingénine B et célastrol, soit le calcul : [formula]

IL-23A = assay: RT-qPCR gene expression in cytokine-stimulated keratinocytes; format: cell-based, humains; settings: stimulated keratinocytes, 24 h
DEFB4A = assay: as above; format: cell-based, humains; settings: stimulated keratinocytes, 24 h
CXCL11 = assay: as above; format: cell-based, humains; settings: stimulated keratinocytes, 24 h
CCL5 = assay: as above; format: cell-based, humains; settings: stimulated keratinocytes, 24 h
CCL20 = assay: as above; format: cell-based, humains; settings: stimulated keratinocytes, 24 h
CXCL16 = assay: as above; format: cell-based, humains; settings: stimulated keratinocytes, 24 h
MMP-9 [2] = assay: as above; format: cell-based, humains; settings: stimulated keratinocytes, 24 h
IL-8 [3] = assay: as above; format: cell-based, humains; settings: stimulated keratinocytes, 24 h
MMP-9 [4] = assay: ELISA of MMP-9 release by cytokine-stimulated keratinocytes; format: cell-based, humains; settings: for Libération de MMP-9 (pg/ml) ± sem: 500 ng/ml, stimulated keratinocytes, 48 h, supernatant; for effet sur la libération de MMP-9 (in words): concentrations as in Tableau 5 (JAK 10 µM; TA, TB 500 ng/ml; Célastrol 100 ng/ml; extrait 1 200 ng/ml; extrait 2 150 ng/ml)
IL-8 [5] = assay: ELISA of IL-8 release by cytokine-stimulated keratinocytes; format: cell-based, humains; settings: concentrations as in Tableau 5 (JAK 10 µM; TA, TB 500 ng/ml; Célastrol 100 ng/ml; extrait 1 200 ng/ml; extrait 2 150 ng/ml)
S100A7 = assay: RT-qPCR gene expression in cytokine-stimulated keratinocytes; format: cell-based, humains; settings: stimulated keratinocytes, 24 h

Compound | % Stimulation / Gènes témoins, CXCL10 (CXCL10; 45 ng/ml) [%] | % Stimulation / Gènes témoins, CXCL10 (CXCL10; 135 ng/ml) [%] | % Stimulation / Gènes témoins, CXCL10 (CXCL10; 405 ng/ml) [%] | % Stimulation / Gènes témoins, IL-23A (IL-23A; 45 ng/ml) [%] | % Stimulation / Gènes témoins, IL-23A (IL-23A; 135 ng/ml) [%] | % Stimulation / Gènes témoins, IL-23A (IL-23A; 405 ng/ml) [%] | % Stimulation / Gènes témoins, DEFB4A (DEFB4A; 45 ng/ml) [%] | % Stimulation / Gènes témoins, DEFB4A (DEFB4A; 135 ng/ml) [%] | % Stimulation / Gènes témoins, DEFB4A (DEFB4A; 405 ng/ml) [%] | % Stimulation / Gènes témoins, CXCL11 (CXCL11; 45 ng/ml) [%] | % Stimulation / Gènes témoins, CXCL11 (CXCL11; 135 ng/ml) [%] | % Stimulation / Gènes témoins, CXCL11 (CXCL11; 405 ng/ml) [%] | % Stimulation / Gènes témoins, CCL5 (CCL5; 45 ng/ml) [%] | % Stimulation / Gènes témoins, CCL5 (CCL5; 135 ng/ml) [%] | % Stimulation / Gènes témoins, CCL5 (CCL5; 405 ng/ml) [%] | % Stimulation / Gènes témoins, CCL20 (CCL20; 45 ng/ml) [%] | % Stimulation / Gènes témoins, CCL20 (CCL20; 135 ng/ml) [%] | % Stimulation / Gènes témoins, CCL20 (CCL20; 405 ng/ml) [%] | % Stimulation / Gènes témoins, CXCL16 (CXCL16; 45 ng/ml) [%] | % Stimulation / Gènes témoins, CXCL16 (CXCL16; 135 ng/ml) [%] | also measured
CC1=C(O)C(=O)C=C2C1=CC=C1[C@@]2(C)CC[C@@]2(C)C3C[C@@H](C)C(=O)C[C@]3(C)CC[C@]12C (stereo partly drawn) [Tingénine A] | 108 | 80 | 31 | 123 | 102 | 55 | 81 | 63 | 22 | 107 | 85 | 23 | 92 | 64 | 19 | 112 | 124 | 80 | 116 | 93 | Indice ORAC / 100g triterpènes (x 1000) ([1]; 0,75 µg/ml): 33 960 / 100g triterpènes (x 1000); pouvoir anti-oxydant compared with vitamine C (in words) ([1]; comparison of ORAC indices of Tableau 6): inférieur; % Stimulation / Gènes témoins, CXCL16 (CXCL16; 405 ng/ml): 50%; % Stimulation / Gènes témoins, MMP-9 (MMP-9 [2]; 45 ng/ml): 98%; % Stimulation / Gènes témoins, MMP-9 (MMP-9 [2]; 135 ng/ml): 93%; % Stimulation / Gènes témoins, MMP-9 (MMP-9 [2]; 405 ng/ml): 34%; % Stimulation / Gènes témoins, IL-8 (IL-8 [3]; 45 ng/ml): 113%; % Stimulation / Gènes témoins, IL-8 (IL-8 [3]; 135 ng/ml): 125%; % Stimulation / Gènes témoins, IL-8 (IL-8 [3]; 405 ng/ml): 53%; Libération de MMP-9 (pg/ml) ± sem (MMP-9 [4]): 787 ± 105 pg/mL; effet sur la libération de MMP-9 (in words) (MMP-9 [4]): effet inhibiteur; effet sur la libération d'IL-8 (in words) (IL-8 [5]): effet inhibiteur; % Stimulation / Gènes témoins, S100A7 (S100A7; 45 ng/ml): 91%; % Stimulation / Gènes témoins, S100A7 (S100A7; 135 ng/ml): 91%; % Stimulation / Gènes témoins, S100A7 (S100A7; 405 ng/ml): 70%
Tingénine B | 93 | 83 | 30 | 80 | 72 | 34 | 67 | 48 | 16 | 78 | 57 | 27 | 68 | 55 | 19 | 105 | 85 | 82 | 83 | 77 | Indice ORAC / 100g triterpènes (x 1000) ([1]; 7,5 µg/ml): 124 320 / 100g triterpènes (x 1000); % Stimulation / Gènes témoins, CXCL16 (CXCL16; 405 ng/ml): 54%; % Stimulation / Gènes témoins, MMP-9 (MMP-9 [2]; 45 ng/ml): 88%; % Stimulation / Gènes témoins, MMP-9 (MMP-9 [2]; 135 ng/ml): 63%; % Stimulation / Gènes témoins, MMP-9 (MMP-9 [2]; 405 ng/ml): 32%; % Stimulation / Gènes témoins, IL-8 (IL-8 [3]; 45 ng/ml): 96%; % Stimulation / Gènes témoins, IL-8 (IL-8 [3]; 135 ng/ml): 70%; % Stimulation / Gènes témoins, IL-8 (IL-8 [3]; 405 ng/ml): 44%; Libération de MMP-9 (pg/ml) ± sem (MMP-9 [4]): 828 ± 31 pg/mL; effet sur la libération de MMP-9 (in words) (MMP-9 [4]): effet inhibiteur; effet sur la libération d'IL-8 (in words) (IL-8 [5]): effet inhibiteur; % Stimulation / Gènes témoins, S100A7 (S100A7; 45 ng/ml): 76%; % Stimulation / Gènes témoins, S100A7 (S100A7; 135 ng/ml): 63%; % Stimulation / Gènes témoins, S100A7 (S100A7; 405 ng/ml): 57%
